Test [1] deals with Escherichia coli strain ATCC 25922 called "EC10". In words: Raman spectroscopy analysis of individual bacteria exposed to an antibiotic (method of the invention), strain EC10. Type of test: cell-based. The note with it: Raman, distance to gentamicin reference signature, tested 0, 0.005, 0.015, 0.064 μg/mL. The procedure: (§1) The retained conditioning device is constituted of two fluidic chambers and two antibiotic concentrations are tested: c0: “Without antibiotic” and “Resistance test”.
Let c1 be the concentration of gentamicin: c1=8 μg/mL, which corresponds to the doubling of the concentration 4 μg/mL corresponding to the clinical breakpoint as defined by the EUCAST. The objective of this test is to determine whether the bacterium is considered as resistant according to the definitions provided by the EUCAST.
A solution containing the bacteria to be tested is used as a test sample. This solution is obtained by suspending 5.10^7 CFU/mL in order to have a concentration potentially encountered in a clinical sample, for example a urine collection. This bacteria solution is brought into contact with the interface I of the device functionalized by adsorbing polyethylenimine (PEI) (generic capture). After a capture time of 10 minutes allowing the bacteria to come into contact with the functionalization, the interface I is washed with a water solution, this optional step allowing to eliminate the surplus of uncaptured bacteria still in solution. The physiological medium retained in this example is constituted of a poorly enriched mixture of Bouillon TSB-T Trypcase Soy broth (for example of the reference 42100 of bioMérieux) and of PBS 10× (for example obtained from the PBS tablets of the reference A9162, 0100 of the brand AppliChem) in a 1:9 ratio. After dividing this physiological medium into two fractions, an amount of gentamicin (for example of the reference G1397-10ML of Sigma-Aldrich) is added respectively to each of these fractions, allowing to obtain a different concentration of gentamicin c0 or c1. The solutions of concentrations c0 and c1 produced accordingly are respectively introduced into the chambers C0 or C1. The bacteria captured directly from the sample on the surface I are thus exposed, in a suitable medium, to a different antibiotic concentration depending on the chamber in which they are present.
The device is then heated in order to reach a temperature of 37° C. for two hours and then placed in measurement position on the micro-spectrometer. The marking of the captured bacteria is carried out by an automatic procedure based on image analysis, by a conventional procedure for detecting particles, acquired by means of the micro-spectrometer camera and a suitable light source. This marking allows acquiring automatically a series of Raman spectra (S0 and S1, respectively) acquired on individual bacteria present in each chamber C0 and C1. The number of spectra to be acquired for constituting a dataset depends on the level of requirement on the performances of the tests to be carried out. […]

The test system of test [2] is Escherichia coli strain ATCC 25922. The note with it: cited from earlier work.
Test [3] concerns Staphylococcus aureus strain ATCC 25923 called "SA44". In words: Raman spectroscopy analysis of individual bacteria exposed to an antibiotic (method of the invention), strain SA44. Type of test: cell-based. As for the experimental part: as §1
Let c1 be the concentration of oxacillin: c1=8 μg/mL which corresponds to multiplying by a factor of 32 the concentration of 0.25 μg/mL which corresponds to the clinical breakpoint as defined by the EUCAST. The objective of this test is to determine whether the bacterial strain is considered as resistant according to the definitions provided by the EUCAST.
A solution containing the bacteria to be tested is used as a test sample. This solution is obtained by suspending 5.10^7 CFU/mL in order to have a concentration potentially encountered in a clinical sample, for example a urine collection. The bacteria can come from a culture in a liquid medium or a culture in agar medium in Petri dish. This bacteria solution is brought into contact with the interface I of the device functionalized by adsorbing polyethylenimine (PEI) (generic capture). After a capture time of 10 minutes allowing the bacteria to come into contact with the functionalization, the interface I is washed with a water solution, this optional step allowing to eliminate the surplus of uncaptured bacteria still in solution. […]

For test [4] the test system is unchanged. In words: Reference methods (bioMérieux ETEST OX 256 or VITEK card P631), strain SA44. Type of test: cell-based.

In brackets after ≈: the same amount, converted by molar mass.

Here are results for two compounds from US10704075B2, “Method for determining the reaction of a microorganism to its exposure to a chemical compound” (bioMérieux, priority 2015, dated 2020).

For the compound `O=C(O)c1cn(C2CC2)c2cc(N3CCNCC3)c(F)cc2c1=O` [ciprofloxacin], in test [1], the “concentrations at which an antibiotic effect is detected” value is on record as “greater than 0.005 μg/mL”. For the same compound, in test [2], the “EUCAST known MIC” value was 0.008 µg/mL.

One may read the MIC as the lowest concentration that inhibits growth of the organism. Higher therefore signals weaker potency. Regarding `Cc1onc(-c2ccccc2)c1C(=O)N[C@@H]1C(=O)N2[C@@H]1SC(C)(C)[C@@H]2C(=O)O` [oxacillin], in test [3] (Raman test at 8 μg/mL), the “sensitivity phenotype according to the invention” value is listed as “sensitive”. Further, in test [3] (oxacillin 8 μg/mL, 2 hours at 37° C., N=9, M=337, FIG. 12 (liquid medium cultures)), the “percentage of test samples classified as "ATB effect"” value is “greater than 97%”. This compound returned an MIC in test [4] (Staphylococcus aureus, ATCC25923, ETEST OX 256 or VITEK card P631) of 0.25 µg/mL (≈ 0.623 µM). The “phenotype according to the EUCAST / reference” value in test [4] (from reference MIC) is recorded as “not resistant”.
